# Source: patent publication US11813362B2, “Film-coated tablet comprising a triazine derivative for use in the treatment of diabetes” (Poxel, priority 2018, dated 2023)
# Assay: Compatibility tests of imeglimin with excipients as 50:50 (w/w) binary mixture
# Type: physicochemical
# From the text: In a preferred embodiment, the binder consists of hydroxypropylcellulose. In other embodiments, it may comprise at least one other binder in addition to hydroxypropylcellulose, which may be selected from: microcrystalline cellulose, methylcellulose, ethylcellullose, hydroxyethylcellulose, hydroxypropylmethylcellulose (hypromellose), sodium carboxymethylcellulose (carmellose), gelatin, gum arabic, dextrin, maltodextrin, pregelatinized starch, gelatin, acacia gum, guar gum, sodium alginate, alginic acid, carbomer, polyvinyl alcohol and mixtures thereof. […] The binder(s) may represent from 1.5 to 4.5 wt. %, preferably from 3.5 to 4.5 wt. %, relative to the total weight of the tablet.
# In addition to the binder(s), the tablet of this invention comprises at least one disintegrant. […] The disintegrant may thus be selected from the group consisting of: sodium croscarmellose, sodium carboxymethyl starch, hydroxypropylcellulose, calcium carboxymethylcellulose, microcrystalline cellulose, calcium carbonate, magnesium aluminum silicate, sodium starch glycolate, pregelatinized starch, sodium alginate, alginic acid, guar gum and their mixtures, for instance. Preferably, the disintegrant comprises, or preferably is, sodium croscarmellose. The disintegrant(s) may represent from 1.5 to 3 wt. %, preferably from 1.8 to 2.2 wt. %, relative to the total weight of the tablet.
structure (smiles),measurement,setting,value
"C[C@@H]1NC(=N)N=C(N(C)C)N1.Cl [imeglimin, (+)-2-amino-3,6-dihydro-4-dimethylamino-6-methyl-1,3,5-triazine hydrochloride]",formation of degradation products (compatibility),50:50 (w/w) binary mixture with crospovidone,degradation products are formed
same,formation of degradation products (compatibility),50:50 (w/w) binary mixture with polyvinylpyrrolidone (povidone),degradation products are formed
